“Also recorded” adds a separate entry of the source. Read-outs that look alike come from different tables or passages of the source.
Columns and labels:
[1] = target: T1, hH3R (Homo sapiens, UniProt Q9Y5N1); assay: H3R radioligand displacement assay ([3H]-N-α-methylhistamine); assay type: binding; conditions: 95% confidence interval in brackets; HEK-293 membranes
T1 construct: expressed in transfected cells; host or cells: HEK-293
Description: HEK-293 cells (human embryonic kidney cells) stably expressing hH3R were washed and harvested in PBS buffer (phosphate-buffered saline). […] The cell membrane homogenate was centrifuged (20,000× g, 20 min, 4 °C), and the resulting pellet was resuspended in binding buffer and stored at −80 °C until use.
Prior to experiments, the cell membranes were thawed, homogenized by sonication at 4 °C, and kept in ice-cold binding buffer. Crude membrane extracts (20 μg/well in a final volume of 0.2 mL binding buffer) were incubated with [^3H]-N-α-methylhistamine (2 nM; 78.3 Ci/mmol) and varying concentrations of test compounds. Assays were performed in duplicate, with compound concentrations ranging from 0.01 nM to 100 μM. Incubations proceeded for 90 min at room temperature under continuous agitation.
Bound radioligand was separated from free radioligand by filtration through GF/B filters pretreated with 0.3% (w/v) polyethyleneimine, using a cell harvester. Radioactivity was quantified by liquid scintillation counting. Data were analyzed using GraphPad Prism v8 (San Diego, CA, USA) software, employing non-linear regression analysis.

[2] = target: T2, hMAO-B (Homo sapiens, UniProt P27338); assay: biochemical; assay type: biochemical; conditions: test concentration of 1 µM; read-out: Percentage of MAO-B inhibition ± SEM
T2 construct: purchased Sigma-Aldrich, Gillingham, UK
T2 sequence (P27338 1-520): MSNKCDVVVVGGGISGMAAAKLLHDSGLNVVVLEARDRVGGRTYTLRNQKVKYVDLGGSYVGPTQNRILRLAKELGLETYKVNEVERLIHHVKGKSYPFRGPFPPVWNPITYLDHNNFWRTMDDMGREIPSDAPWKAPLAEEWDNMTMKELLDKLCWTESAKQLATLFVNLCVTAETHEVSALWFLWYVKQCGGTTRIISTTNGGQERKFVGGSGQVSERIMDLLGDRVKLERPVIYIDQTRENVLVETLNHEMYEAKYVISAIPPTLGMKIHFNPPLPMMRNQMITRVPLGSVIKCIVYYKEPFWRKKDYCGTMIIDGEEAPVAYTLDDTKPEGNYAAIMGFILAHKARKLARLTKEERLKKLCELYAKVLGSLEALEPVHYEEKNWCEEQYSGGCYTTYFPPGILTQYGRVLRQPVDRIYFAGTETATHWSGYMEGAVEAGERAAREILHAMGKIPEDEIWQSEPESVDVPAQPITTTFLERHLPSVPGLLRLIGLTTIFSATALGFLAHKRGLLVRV
Description: The activity of human recombinant membrane-bound monoamine oxidase isoforms A and B (MAO-A/B) (Sigma-Aldrich, Gillingham, UK) in 50 mM potassium phosphate buffer (pH 7.5) was determined by measuring hydrogen peroxide production coupled to the fluorescent dye Amplex Red (Sigma-Aldrich, UK) at a final concentration of 50 μM, in the presence of horseradish peroxidase (HRP, 2.5 U/mL). This coupling reaction generates the fluorescent product resorufin, which was quantified at 30 °C using a fluorescence plate reader.
(§1) Reactions were initiated by adding the substrate and dye after a 30 min preincubation of the inhibitor with the enzyme. Data were analyzed using a three-parameter equation in GraphPad Prism 7.0 (San Diego, USA). Each reported value represents the mean of at least two independent determinations.

[3] = target: electric eel AChE [EeAChE] (Electrophorus electricus, UniProt O42275); assay: biochemical; assay type: biochemical; conditions: for IC50: Electric eel AChE, Ellman method, read-out: IC50(nM) ± SD AChE (EeAChE); for SI: Selectivity Index = EqBChE IC50/EeAChE IC50
Sequence of electric eel AChE [EeAChE] (O42275 24-633): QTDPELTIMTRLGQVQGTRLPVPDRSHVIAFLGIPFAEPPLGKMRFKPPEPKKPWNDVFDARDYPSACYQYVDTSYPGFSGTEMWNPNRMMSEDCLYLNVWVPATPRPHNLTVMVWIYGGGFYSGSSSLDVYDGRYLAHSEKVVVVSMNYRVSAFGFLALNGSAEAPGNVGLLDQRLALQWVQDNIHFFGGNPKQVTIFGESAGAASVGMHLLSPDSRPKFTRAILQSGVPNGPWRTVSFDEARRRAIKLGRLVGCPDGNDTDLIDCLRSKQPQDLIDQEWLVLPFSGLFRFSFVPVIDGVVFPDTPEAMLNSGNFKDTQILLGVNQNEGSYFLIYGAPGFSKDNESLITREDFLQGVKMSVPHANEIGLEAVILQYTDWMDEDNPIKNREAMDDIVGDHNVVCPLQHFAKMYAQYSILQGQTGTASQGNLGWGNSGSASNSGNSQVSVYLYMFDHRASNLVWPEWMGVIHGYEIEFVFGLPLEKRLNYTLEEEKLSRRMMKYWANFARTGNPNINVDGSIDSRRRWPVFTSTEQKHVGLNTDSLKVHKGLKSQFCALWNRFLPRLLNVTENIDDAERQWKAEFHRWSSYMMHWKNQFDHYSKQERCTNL
Description: (§2) The anticholinesterase activity was determined using Ellman’s method, adapted as follows. […] Subsequently, 60 μL of 5,5′-dithiobis(2-nitrobenzoic acid) (DTNB, 1.1 mM) and 30 μL of enzyme solution (electric eel AChE [EeAChE], human AChE [hAChE], or equine serum BChE [EqBChE], 0.20 U/mL) containing 1 mg/mL bovine serum albumin (BSA) were added. […] Enzyme activity was calculated as the percentage relative to untreated controls, subtracting the blank reference. IC50 values were derived via non-linear regression analysis of dose–response curves (Figure S4) using GraphPad Prism v7.0.

[4] = target: T3, equine serum BChE [EqBChE] (Equus caballus, UniProt P81908); assay: biochemical; conditions: Ellman method, read-out: IC50(nM) ± SD BChE (EqBChE)
T3 construct: equine serum BChE [EqBChE]; from tissue; host or cells: equine serum
T3 sequence (P81908 whole entry): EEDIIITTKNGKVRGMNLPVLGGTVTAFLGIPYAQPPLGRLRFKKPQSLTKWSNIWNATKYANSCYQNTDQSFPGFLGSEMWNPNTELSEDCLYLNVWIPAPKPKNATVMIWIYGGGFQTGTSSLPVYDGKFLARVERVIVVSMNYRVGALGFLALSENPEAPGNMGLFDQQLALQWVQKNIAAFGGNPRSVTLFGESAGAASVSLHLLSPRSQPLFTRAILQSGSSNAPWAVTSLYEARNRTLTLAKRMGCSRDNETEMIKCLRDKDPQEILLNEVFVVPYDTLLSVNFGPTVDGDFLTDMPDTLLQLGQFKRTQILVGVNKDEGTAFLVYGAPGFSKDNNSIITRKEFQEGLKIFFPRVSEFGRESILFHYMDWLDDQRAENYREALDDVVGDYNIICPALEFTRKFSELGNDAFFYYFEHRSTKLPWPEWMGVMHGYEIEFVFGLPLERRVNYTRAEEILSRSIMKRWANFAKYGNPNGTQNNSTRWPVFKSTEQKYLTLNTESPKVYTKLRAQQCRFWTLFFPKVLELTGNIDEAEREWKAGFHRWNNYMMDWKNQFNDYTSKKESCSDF
Description: as §2

[5] = target: T4, hMAO-A (Homo sapiens, UniProt P21397); assay: MAO-A inhibition, fluorometric Amplex Red assay; assay type: biochemical; conditions: test concentration of 1 µM; read-out: Percentage of MAO-A inhibition ± SEM
T4 construct: purchased Sigma-Aldrich, Gillingham, UK
T4 sequence (P21397 1-527): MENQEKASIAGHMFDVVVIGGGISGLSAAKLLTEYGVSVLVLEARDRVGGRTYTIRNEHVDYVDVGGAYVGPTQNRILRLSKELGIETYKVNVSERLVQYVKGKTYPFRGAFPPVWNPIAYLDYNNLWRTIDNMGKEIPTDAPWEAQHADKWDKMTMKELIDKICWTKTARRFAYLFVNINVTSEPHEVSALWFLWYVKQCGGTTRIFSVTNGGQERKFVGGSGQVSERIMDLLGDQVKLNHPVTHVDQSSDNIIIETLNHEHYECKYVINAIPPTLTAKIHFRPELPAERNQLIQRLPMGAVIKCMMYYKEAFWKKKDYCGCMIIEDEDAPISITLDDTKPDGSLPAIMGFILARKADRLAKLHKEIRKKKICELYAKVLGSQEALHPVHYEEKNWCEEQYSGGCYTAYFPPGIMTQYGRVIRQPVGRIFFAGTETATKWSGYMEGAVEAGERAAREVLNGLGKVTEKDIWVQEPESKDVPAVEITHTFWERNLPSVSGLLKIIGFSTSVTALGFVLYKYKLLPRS
Description: The activity of human recombinant membrane-bound monoamine oxidase isoforms A and B (MAO-A/B) (Sigma-Aldrich, Gillingham, UK) in 50 mM potassium phosphate buffer (pH 7.5) was determined by measuring hydrogen peroxide production coupled to the fluorescent dye Amplex Red (Sigma-Aldrich, UK) at a final concentration of 50 μM, in the presence of horseradish peroxidase (HRP, 2.5 U/mL). This coupling reaction generates the fluorescent product resorufin, which was quantified at 30 °C using a fluorescence plate reader. […].
as §1

[6] = target: T3, equine serum BChE [EqBChE]; parameters: method as in PMID 30727776; conditions: Figure 1; ref [22]; read-out: EqBChE (IC50 of prototype); cited from earlier work
[7] = test system: H2O2-damaged SH-SY5Y cells; assay: In vitro neuroprotection against H2O2 in SH-SY5Y (MTT); conditions: Homo sapiens, SH-SY5Y, read-out: Cell viability (% of control)
Description: For the neuroprotection assay, the cells previously cultured (Section 3.4.1) were seeded in 96-well plates at a density of 5 × 10^4 cells/well in a volume of 200 µL. The plates were incubated at 37 °C containing 5% CO2 for 24 h. After 24 h, the medium was replaced with the test solutions. […] Finally, the test solutions were removed, the cells were washed with PBS pH 7.4, and the H2O2 solution was added and maintained in contact with the cells for 24 h. After 24 h exposure, the neuroprotective capacity was assessed through cell viability using the MTT assay protocol previously described in Section 3.4.3 [52, 53].

[8] = test system: SH-SY5Y neuroblastoma cells; assay: Cytotoxicity (neurotoxicity) MTT assay in SH-SY5Y; assay type: cell-based; conditions: up to 50 µM
Description: (§3) The immortalized human neuroblastoma cell line (SH-SY5Y–ATCC: CRL-2226; BCRJ:0223) was used to evaluate cytotoxicity. The cell line was cultured in Dulbecco’s Modified Eagle’s Medium and F12 in a 1:1 ratio (DMEM:F12; Sigma-Aldrich code 0697, Brazil) supplemented with 10% fetal bovine serum (FBS; Sigma-Aldrich code F2442, Brazil) and 1% streptomycin/penicillin (10,000 U/mL and 10,000 μg/mL, respectively; Nova Biotecnologia code BR30110-01, Cotia, SP, Brazil) and incubated at 37 °C with 5% CO2. The culture medium was replaced every 48 h, until the cells reached semi-confluence (≥70%). Cell passage was carried out with the aid of trypsin-EDTA/0.25% solution (Nova Biotecnologia, Brazil) and divided between 5 or 8 mL culture volumes depending on the respective bottles (25 or 75 cm^2) used.
(§4) The in vitro cytotoxicity assay evaluated cell viability using the [3-(4,5-dimethylthiazol-2yl)-2,5-diphenyl tetrazolium] bromide (MTT) reduction assay. Cells were seeded at an initial density of 5.0 × 10^4 cells/well in 96-well plates in a volume of 200 µL. […] In the next step, the culture medium was replaced by the sample solution previously described (Section 3.4.2). After 24 h exposure, the medium was replaced with 100 μL of MTT in phosphate-buffer saline (PBS), pH 7.4, at a concentration of 0.5 mg.mL^−1/well and the plates were incubated for an additional 3 h. Then, the MTT solution was removed, and 100 μL of DMSO was added to solubilize the formazan crystals. The cell viability was measured by absorbance at 562 nm using a Microplate Absorbance Reader (Kasuaki, Brazil). All concentrations tested were evaluated in nine replicates (n = 9). The variation in results was observed using ANOVA followed by Tukey’s test for multiple comparisons through GraphPad Prism v5^TM with a significance level of p < 0.05.

[9] = Cytotoxicity (neurotoxicity) MTT assay in SH-SY5Y; assay type: cell-based; conditions: human, SH-SY5Y neuroblastoma cells
Description: as §3, §4

[10] = target: human AChE [hAChE] (Homo sapiens, UniProt P22303); assay: biochemical
Sequence of human AChE [hAChE] (P22303 32-614): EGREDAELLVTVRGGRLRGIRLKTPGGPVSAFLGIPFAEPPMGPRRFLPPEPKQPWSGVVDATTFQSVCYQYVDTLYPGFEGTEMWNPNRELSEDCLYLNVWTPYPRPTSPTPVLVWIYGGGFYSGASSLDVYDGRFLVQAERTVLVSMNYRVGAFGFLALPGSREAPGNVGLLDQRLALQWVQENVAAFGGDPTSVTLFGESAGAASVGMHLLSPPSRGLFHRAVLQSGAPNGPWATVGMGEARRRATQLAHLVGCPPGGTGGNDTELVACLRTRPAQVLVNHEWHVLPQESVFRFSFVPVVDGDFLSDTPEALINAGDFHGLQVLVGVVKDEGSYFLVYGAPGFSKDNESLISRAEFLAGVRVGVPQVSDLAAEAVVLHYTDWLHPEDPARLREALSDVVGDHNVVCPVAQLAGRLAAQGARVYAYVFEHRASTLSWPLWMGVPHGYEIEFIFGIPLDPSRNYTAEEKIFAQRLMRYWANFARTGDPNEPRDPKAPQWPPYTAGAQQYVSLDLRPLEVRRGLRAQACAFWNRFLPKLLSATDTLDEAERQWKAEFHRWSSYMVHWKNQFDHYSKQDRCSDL
Description: as §2

[11] = target: electric eel acetylcholinesterase (EeAChE) (Electrophorus electricus, UniProt O42275); assay: Enzymatic kinetic study, EeAChE; assay type: biochemical; conditions: AChE
Sequence of electric eel acetylcholinesterase (EeAChE) (O42275 24-633): as the sequence (O42275 24-633) above
Description: (§5) The enzymatic kinetics of cholinesterase inhibition were determined according to an adapted Ellman’s method. All of the solutions were prepared at 20 °C in 0.02 M Tris-HCl buffer (pH 7.5; ionic strength ~0.02 M), stock solutions of test compounds were prepared in DMSO:EtOH (7:3) mixture (20 mM), and the experiment was conducted in triplicate. To a flat-bottom 96-well transparent plate (path length of 0.6 cm) were added 150 μL of treatment solutions with inhibitors 1a, 1h, and 1j at two different concentrations (Table S1) distributed in eight sets of triplicate each. Eight sets of untreated triplicates were used as a negative control. Following, there were added 60 μL of 5,5′-Dithiobis(2-nitrobenzoic acid) (DTNB, Ellman’s reagent) at 1.1 mM and 30 μL of electric eel acetylcholinesterase (EeAChE) or equine serum butyrylcholinesterase (EqBuChE) at 0.20 U/mL in the presence of 1 mg/mL bovine serum albumin (BSA). […] Ki, Ki’ (competitive and noncompetitive inhibition constants, respectively), Km (Michaelis-Menten constant), and Vmax values were calculated with Graphpad Prism v7.0 using the non-linear regression models for enzyme kinetics inhibition and enzyme kinetics–substrate vs. velocity.

[12] = target: T5, equine serum butyrylcholinesterase (EqBuChE) (Equus caballus, UniProt P81908); assay: Enzymatic kinetic study, EqBChE; assay type: biochemical; conditions: BChE
T5 construct: equine serum BChE [EqBChE]; from tissue; host or cells: equine serum
T5 sequence (P81908 whole entry): as the sequence (P81908 whole entry) above
Description: as §5

[13] = competitive inhibition constant (Table S2), read-out: Ki (nM) ± SD
[14] = global non-linear regression, mixed inhibition (Table S3)

T1 sequence (Q9Y5N1 whole entry): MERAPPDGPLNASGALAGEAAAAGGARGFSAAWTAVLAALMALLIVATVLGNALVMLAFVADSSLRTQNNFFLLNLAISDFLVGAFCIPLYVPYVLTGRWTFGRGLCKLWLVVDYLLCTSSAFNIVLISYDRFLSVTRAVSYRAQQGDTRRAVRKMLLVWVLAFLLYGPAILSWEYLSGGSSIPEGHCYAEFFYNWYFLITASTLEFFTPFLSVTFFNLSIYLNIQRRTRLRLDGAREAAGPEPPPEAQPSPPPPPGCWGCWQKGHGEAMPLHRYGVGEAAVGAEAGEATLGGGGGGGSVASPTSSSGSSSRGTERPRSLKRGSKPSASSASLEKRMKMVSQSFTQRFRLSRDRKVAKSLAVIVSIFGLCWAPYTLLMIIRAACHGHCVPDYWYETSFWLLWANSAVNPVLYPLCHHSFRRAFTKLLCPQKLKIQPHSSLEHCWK

## O=c1oc2cc(OCCCN3CCCCC3)ccc2cc1-c1cn(-c2ccccc2)nn1 [Compound 1b, 3-(1-Phenyl-1H-1,2,3-triazol-4-yl)-7-(3-(piperidin-1-yl)propoxy)-2H-chromen-2-one]
[1]
  Ki: 32 nM
[2]
  inhibition at 1 µM: 11.4 ± 1.9%
[3]
  IC50: 1330 ± 45 nM
  SI: 3
[4]
  IC50: 3970 ± 94 nM
[5]
  inhibition at 1 µM: 6.4 ± 0.5%

## CN(C)c1ccc(-c2cc3ccc(OCCN4CCCCC4)cc3oc2=O)cc1 [Compound 2]
[6]
  IC50: 6370 nM

## COc1cccc(Cn2cc(-c3cc4ccc(OCCN5CCCCC5)cc4oc3=O)nn2)c1 [Compound 1j, 3-(1-(3-Methoxybenzyl)-1H-1,2,3-triazol-4-yl)-7-(2-(piperidin-1-yl)ethoxy)-2H-chromen-2-one]
[7]
  viability at 12.5 µM: 68%
[8]
  neurotoxicity: non-neurotoxic; also recorded: neurotoxicity in high concentrations
[9]; 12.5 μM, 24 h, MTT, read-out: Cell viability (% of control)
  viability at 24 h, 12.5 µM: 71%
[9]; 25.0 μM, 24 h, MTT, read-out: Cell viability (% of control)
  viability at 24 h, 25 µM: 70%
[9]; 50.0 μM, 24 h, MTT, read-out: Cell viability (% of control)
  viability at 24 h, 50 µM: 63%
[9]; up to 25 μM, read-out: cell viability
  viability at 24 h: ≥ 70%
[3]
  IC50: 4.16 ± 0.11 nM
  SI: 686
[10]; Human AChE, Ellman method, read-out: IC50(nM) ± SD AChE (hAChE) (converted)
  IC50: 12.5 nM
[10]; SI = EqBChE IC50/hAChE
  SI: 222
[4]
  IC50: 2880 ± 120 nM
[11]; [13]
  Ki: 0.508 ± 0.0001 nM
[11]; corrected for tight-binding using the Morrison equation (Table S3), read-out: Ki ± SE (95% CI)
  Ki: 0.637 nM
[11]; [14]
  α ± SE (95% CI): 4.248 ± 1.415
[11]; inhibitor 0.003 μM
  Vmax ± SD: 5.21 ± 0.0656 1 × 10^3 nM/min
[11]; inhibitor 0.005 μM
  Vmax ± SD: 3.90 ± 0.1517 1 × 10^3 nM/min
[12]; [13]
  Ki: 615 ± 0.58 nM
[12]; free enzyme (Table S3), read-out: Ki ± SE (95% CI)
  Ki: 944 ± 200 nM
[12]; [14]
  α ± SE (95% CI): 3.349 ± 1.984
[12]; inhibitor 1.9 μM
  Vmax ± SD: 5.97 ± 0.1562 1 × 10^3 nM/min
[12]; inhibitor 3.9 μM
  Vmax ± SD: 4.12 ± 0.2257 1 × 10^3 nM/min

Reference: PMC12472947 (Pharmaceuticals, 2025)
